Experimental data: US9840494B2, “Quinazoline derivative” (Tianjin Hemay Oncology Pharmaceutical Co., Ltd., priority 2013, dated 2017)
pIC50: −log10 of the molar value.

What was measured:
EGFR = target: T1, EGFR (Homo sapiens, UniProt P00533); experiment: Inhibitory effect on tyrosine kinase activity of EGFR; type: biochemical; details: EGFR 40 ng/ml, ATP 10 μM, 30 min
T1 construct: purchased Invitrogen Company PV3872
Method: EGFR: Invitrogen Company, Catalogue No. PV3872
pGT (poly(glutamic acid-tyrosine)): Sigma-Aldrich Company, Catalogue No. P0275
The assay method is briefly described as follows.
3.1.1 At 4° C., 96-well microtiter plate was coated with 0.2 mg/mL pGT (as the substrate of enzyme) dissolved in PBS (phosphate buffer) overnight. Unbound pGT was washed away with a washing solution (0.05% Tween −20 in PBS), and the plate was dried in the air at room temperature for 2 h.
3.1.2 The enzyme reaction was performed in 50 μl reaction system containing 50 mM HEPEs (N-(2-hydroxyethyl)piperazine-N′-2-ethanesulfonic acid), pH 7.5, 0.01% BRIJ-35 (polyoxyethylene lauryl ether), 10 mM MgCl2, 1 mM EGTA (ethylene glycol bis(2-aminoethyl ether)tetraacetic acid), with certain concentrations of ATP (adenosine triphosphate) and kinase, and proceeded for 30 min at room temperature. The phosphate group at the terminal of ATP can be transferred to tyrosine residues of pGT by kinase catalysis so as to phosphorylate the tyrosine residues.
3.1.3 A final concentration of 1% SDS (sodium dodecyl sulfate) was added to terminate the reaction. The phosphorylated tyrosine residues were identified using pY-20. HRP at the end of the antibody enabled TMB to take on color. Then equal amount of 2 N H2SO4 was added to terminate the reaction. OD value, which is positively correlated with the phosphorylation degree of tyrosine residues of pGT, was measured at 450 nm
3.2 The concentrations of the kinase and substrate ATP were determined with reference to the literature “Optimization of a LanthaScreen Kinase assay for EGFR (ErbB1)”(https://tools.lifetechnologies.com/content/sfs/manuals/EGFR_LanthaScreen_actity_Europium.pdf), published by Invitrogen Corporation. The selection criteria for the final concentrations are that the concentration of kinase enabling the yield of the product within the linear range of the detection system and the concentration of ATP approching Km (Michaelis constant) value.
3.3.1 An appropriate amount of a compound was dissolved in DMSO (dimethylsulfoxide) to prepare 2 mM stock solution. Then the stock solution was diluted with DMSO to obtain a working solution with a 50-fold concentration of the highest test concentration, and subjected to a 4-fold gradient dilution to obtain seven concentrations in total.
5 μl 10-fold concentration of ATP dissolved in H2O (the concentration of ATP in EGFR assay is 100 μM, and in Her2 assay is 400 μM) was added to initiate the enzyme reaction followed by reaction at room temperature for 30 min
The mean value of inhibition rate and SD (standard deviation) were determined by duplicate wells. A curve with the concentration of the compound as abscissa and being in logarithmic distribution and the mean value of inhibition rate as ordinate was plotted and fitted using four-parameter logistic function.

EGFR (L858R) = target: T2, EGFR (L858R) (Homo sapiens, UniProt P00533, L858R); experiment: Inhibitory action on tyrosine kinase activity of mutant EGFR (L858R), Caliper; type: biochemical; details: kinase 9 nM, ATP 111 μM, polypeptide 3 μM, 60 min
T2 construct: purchased Invitrogen Corporation PR7447A
T2 sequence (P00533 25-1210 L858R): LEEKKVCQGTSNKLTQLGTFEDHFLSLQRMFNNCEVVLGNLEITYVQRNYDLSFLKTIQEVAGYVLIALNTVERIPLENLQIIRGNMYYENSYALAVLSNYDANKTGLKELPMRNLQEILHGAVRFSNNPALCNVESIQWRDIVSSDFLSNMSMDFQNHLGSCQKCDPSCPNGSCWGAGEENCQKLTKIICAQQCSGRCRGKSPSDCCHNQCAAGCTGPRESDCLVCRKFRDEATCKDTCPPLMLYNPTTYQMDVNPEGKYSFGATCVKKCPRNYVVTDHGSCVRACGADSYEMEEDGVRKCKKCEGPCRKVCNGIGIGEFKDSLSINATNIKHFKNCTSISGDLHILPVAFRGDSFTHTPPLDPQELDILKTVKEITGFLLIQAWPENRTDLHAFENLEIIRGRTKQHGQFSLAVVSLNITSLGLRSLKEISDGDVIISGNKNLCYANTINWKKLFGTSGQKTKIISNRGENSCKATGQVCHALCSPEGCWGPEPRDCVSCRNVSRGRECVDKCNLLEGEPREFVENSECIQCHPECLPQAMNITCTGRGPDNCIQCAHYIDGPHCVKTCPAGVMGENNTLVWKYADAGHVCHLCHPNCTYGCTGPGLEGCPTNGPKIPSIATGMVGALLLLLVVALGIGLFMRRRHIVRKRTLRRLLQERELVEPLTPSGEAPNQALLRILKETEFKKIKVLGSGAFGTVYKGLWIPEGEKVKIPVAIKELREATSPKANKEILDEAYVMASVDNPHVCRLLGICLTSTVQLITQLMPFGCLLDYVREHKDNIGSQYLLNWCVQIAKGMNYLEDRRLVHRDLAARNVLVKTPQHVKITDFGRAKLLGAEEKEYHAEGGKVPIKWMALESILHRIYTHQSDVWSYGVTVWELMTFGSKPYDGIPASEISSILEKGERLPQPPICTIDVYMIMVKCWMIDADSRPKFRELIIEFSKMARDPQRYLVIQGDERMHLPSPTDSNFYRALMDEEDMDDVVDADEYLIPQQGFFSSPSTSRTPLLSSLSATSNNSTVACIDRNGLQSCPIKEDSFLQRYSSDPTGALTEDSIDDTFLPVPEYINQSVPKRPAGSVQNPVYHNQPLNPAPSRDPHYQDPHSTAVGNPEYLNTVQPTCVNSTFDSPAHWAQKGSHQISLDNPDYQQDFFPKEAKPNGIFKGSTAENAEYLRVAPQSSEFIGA
Method: EGFR(L858R): Invitrogen Corporation, catalogue No. PR7447A
P22(polypeptide substrate): GL Biochem Ltd., catalogue No. 112393
3.2 Formulation of Kinase Buffer: 50 mM HEPES, pH 7.5, 0.0015% Brij-35, 10 mM MgCl2, and 2 mM DTT(dithiothreitol).
3.3 Formulation of Termination Solution: 100 mM HEPES, pH 7.5, 0.015% Brij-35, 0.2% Coating Reagent #3 (prepared by Caliper workstation), and 50 mM EDTA (ethylene diamine tetraacetic acid).
3.4.1 Formulation of a 50-fold concentration of a compound: for example, if the final concentration of the compound for assay is 12.5 nM, 50-fold concentration is 625 nM. The 50-fold concentration of the compound working solution was subjected to a 4-fold dilution with DMSO in a 96-well plate to obtain seven diluted concentrations in total.
3.4.2 Transferring the 5-fold concentration of compound to a reaction plate: 10 μl solution was transferred from each well of the above-mentioned 96-well plate to another 96-well plate, and then 90 μl kinase buffer was added. 5 μl solution was transferred from the above 96-well plate to a 384-well reaction plate. […]
3.6 The substrate conversion rate data was read with Caliper. […]
Inhibition rate %=(max-conversion rate)/(max-min)x100%, wherein max refers to the conversion rate of the DMSO control, min refers to the conversion of enzyme-free control. IC50 values were determined by the inhibition curve.

[1] = test system: salmonella typhimurium TA97, TA98, TA100, TA1535, and TA102; details: with or without S9; for mutagenicity on TA102 strain: doses of less than and equal to 150 μg/plate; for mutagenicity on TA97 strain: doses of less than and equal to 500 μg/plate; for mutagenicity on TA98, TA100 and TA1535 strains: doses of less than and equal to 1500 μg/plate
Method: Direct mutagen 1: Dexon (Dima Technology Inc.; Batch No.: 456-2D)
Indirect mutagen: 2-aminoanthracene, 2-AA (Sigma-Aldrich Inc.; Batch No.: STBB1901V)
Strains: histidine auxotrophic mutants of salmonella typhimurium TA97, TA98, TA100, TA1535, and TA102 (Institute of Laboratory Animal Science, Chinese Academy of Medical Sciences) are cryopreserved in liquid nitrogen.
Bacteria suspension cryopreserved in liquid nitrogen was quickly thawed in a 37° C. water bath. 100 μL bacteria suspension was withdrawn and seeded into 20 mL nutrient broth. After static culture in the dark at 37° C. for 16 h, the bacteria suspension was taken for mutagenicity assay.
The solution was filtered through a 0.22 μm filter membrane. 1.0 mL initial filtrate was discarded during filtrating. Then the filtrated test sample solution (15 mg/mL) was gradiently diluted with DMSO to solutions having the concentrations of 5, 1.5, 0.5 and 0.15 mg/mL.
The solution was filtered through a 0.22 μm filter membrane, 1.0 mL initial filtrate was discarded during filtrating. Then the filtrated test sample solution (15 mg/mL) was gradiently diluted with sterile water for injection to solutions having the concentrations of 5, 1.5, 0.5 and 0.15 mg/mL.
Dexon: an appropriate amount of Dexon was weighed and dissolved in sterile water for injection to obtain a solution with a concentration of 250 μg/mL. The solution was used after being filtered through 0.22 μm sterile filter membrane.
The solution was used after being filtered through 0.22 μm sterile filter membrane.
2-aminoanthracene: an appropriate amount of 2-aminoanthracene was weighed and dissolved in DMSO to obtain a solution with a concentration of 30 μg/mL. The solution was used after being filtered through 0.22 μm sterile filter membrane.
The Sprague-Dawley rat liver S9 fraction used in this assay was prepared on May 18, 2012 with Batch No.: 20120518. It was stored in liquid nitrogen and the protein concentration is 20.477 mg/mL, which can be used before May 17, 2014. Sterility test and biological activity detection met the requirements of the assay.
Before use, S9 mixture was formulated under sterile conditions. The formulated volume was determined by operator according to the requirements of the assay. Other solvents were formulated in accordance with the standard operating procedures of the Centre.
0.1 mL test article or control drug solution, 0.5 mL S9 mixture or PBS (pH7.4), and 2.0 mL top medium (containing about 0.05 mM histidine, about 0.05 mM biotin, about 0.6% agar, and about 0.5% NaCl) in sequence, and 0.1 mL bacteria culture solution finally were added into glass test tubes (10 mL). The mixture was rapidly mixed uniformly on a vortex mixer and poured into the surface of the bottom medium. The top medium was spread evenly over the surface of the basal medium by slight rotation.
The plates were placed on a horizontal table until the medium were solidified. Then the plates were inverted and cultured at 37° C. for 48 h (except for the TA102 strain, which was cultured for 72 h). The plates were withdrawn to count the number of visible revertant colonies per plate. The precipitation phenomenon of the test samples was observed when loading and at the end of culture. Three plates were tested for each group under activation and non-activation conditions, respectively.
If the results meet the following one or two criteria, it would be assessed as positive.

T1 sequence (P00533 25-1210): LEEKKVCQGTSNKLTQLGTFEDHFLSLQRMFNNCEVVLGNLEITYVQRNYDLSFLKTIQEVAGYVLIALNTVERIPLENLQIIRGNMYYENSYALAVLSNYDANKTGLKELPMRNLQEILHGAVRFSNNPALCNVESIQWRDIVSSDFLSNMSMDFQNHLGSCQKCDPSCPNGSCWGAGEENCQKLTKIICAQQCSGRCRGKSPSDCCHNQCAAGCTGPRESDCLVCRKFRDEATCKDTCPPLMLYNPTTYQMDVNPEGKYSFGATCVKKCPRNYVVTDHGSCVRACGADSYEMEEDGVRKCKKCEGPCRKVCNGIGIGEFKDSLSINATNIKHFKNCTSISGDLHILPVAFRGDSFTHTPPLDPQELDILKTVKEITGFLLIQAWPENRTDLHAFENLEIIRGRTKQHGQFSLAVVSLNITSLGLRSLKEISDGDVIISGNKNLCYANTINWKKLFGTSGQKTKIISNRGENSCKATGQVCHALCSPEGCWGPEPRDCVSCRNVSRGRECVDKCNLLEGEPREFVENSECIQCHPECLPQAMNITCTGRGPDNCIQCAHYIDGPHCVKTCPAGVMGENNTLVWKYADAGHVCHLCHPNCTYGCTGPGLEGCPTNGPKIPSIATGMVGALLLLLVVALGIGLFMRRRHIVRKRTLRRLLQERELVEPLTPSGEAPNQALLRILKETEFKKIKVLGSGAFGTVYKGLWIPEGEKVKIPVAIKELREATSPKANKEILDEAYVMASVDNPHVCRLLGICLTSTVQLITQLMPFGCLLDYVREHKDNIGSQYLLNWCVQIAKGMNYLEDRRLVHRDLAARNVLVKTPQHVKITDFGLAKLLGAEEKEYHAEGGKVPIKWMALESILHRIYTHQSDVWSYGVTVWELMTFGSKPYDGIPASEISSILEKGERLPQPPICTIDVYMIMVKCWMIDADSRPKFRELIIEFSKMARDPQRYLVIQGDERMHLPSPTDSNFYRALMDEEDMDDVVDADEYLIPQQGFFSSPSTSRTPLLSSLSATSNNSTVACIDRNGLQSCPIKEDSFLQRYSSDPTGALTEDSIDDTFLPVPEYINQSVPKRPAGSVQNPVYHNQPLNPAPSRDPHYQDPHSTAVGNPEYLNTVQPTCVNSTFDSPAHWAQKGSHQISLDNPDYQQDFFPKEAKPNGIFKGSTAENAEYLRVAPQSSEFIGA

| Compound | pIC50 (EGFR) | pIC50 (EGFR (L858R)) | mutagenicity on TA102 strain [1] | mutagenicity on TA97 strain [1] | mutagenicity on TA98, TA100 and TA1535 strains [1] |
| --- | --- | --- | --- | --- | --- |
| COCCOc1cc2ncnc(Nc3ccc(F)c(Cl)c3)c2cc1NC(=O)C=C1CCN(CCOC)CC1 [Compound 1, N-[4-(3-chloro-4-fluorophenylamino)-7-(2-methoxyethoxy)quinazolin-6-yl]-2-[1-(2-methoxyethyl)piperidin-4-ylidene]acetamide] | 9.40 | 9.40 | no mutagenicity | no mutagenicity | no mutagenicity |
| COCCOc1cc2ncnc(Nc3ccc(F)c(Cl)c3)c2cc1NC(=O)C=C1CCN(CCOC)CC1.Cl.Cl [Compound 2, N-[4-(3-chloro-4-fluorophenylamino)-7-(2-methoxyethoxy)quinazolin-6yl]-2-[1-(2-methoxyethyl)piperidin-4-ylidene]acetamide dihydrochloride] | 9.30 | – | – | – | – |
| COCCOc1cc2ncnc(Nc3ccc(F)c(Cl)c3)c2cc1NC(=O)C=C1CCN(CCOC)CC1.CS(=O)(=O)O [Compound 3, N-[4-(3-chloro-4-fluorophenylamino)-7-(2-methoxyethoxy)quinazolin-6-yl]-2-[1-(2-methoxyethyl)piperidin-4-ylidene]acetamide dimethylsulfonate] | 9.40 | 9.35 | no mutagenicity | no mutagenicity | no mutagenicity |
